Assay results as given in patent publication US20180024136A1, “Development of ABCG2-Sensitive Fluorescent Probe For Isolation of ABCG2low Neural Stem/Progenitor Cells” (National University of Singapore, priority 2015, published 2018).

Test: Spectroscopic properties of CF library (absorbance, emission, quantum yield, extinction coefficient)
Assay type: physicochemical
Details: 100 μM in ethanol; for QY (Φ): reference fluorescein
Procedure: All the chemicals and solvents were purchased from Sigma Aldrich, Alfa Aesar, Fluka, MERCK, Tocris or Acros, and used without further purification. Normal phase purifications were carried out using Merck Silica Gel 60 (particle size: 0.040-0.063 mm, 230-400 mesh). Analytical characterization was performed on a HPLC-MS (Agilent-1200 series) with a DAD detector and a single quadrupole mass spectrometer (6130 series) with an ESI probe. ^1H-NMR and ^13C-NMR spectra were recorded on Bruker Avance 300 MHz NMR spectrometers, and chemical shifts are expressed in parts per million (ppm) and coupling constants are reported as a J value in Hertz (Hz). High resolution mass spectrometry (HRMS) data was recorded on a Micro mass VG 7035 (Mass Spectrometry Laboratory at National University of Singapore (NUS)). Spectroscopic and quantum yield data were measured on spectroscopic measurements, performed on a fluorometer and UV/VIS instrument, Synergy 4 of Bioteck Company. The slit width was 1 nm for both excitation and emission, and the data analysis was performed using GraphPrism 5.0.

Compound | Abs (nm) | Em (nm) | QY (Φ)
CCCCCCCCCCCCCCNC(=O)c1ccc(-c2c3cc(Cl)c(=O)cc-3oc3cc(O)c(Cl)cc23)cc1 [CF-A2] | 520 | 558 | 0.42
CCC(NC(=O)c1ccc(-c2c3cc(Cl)c(=O)cc-3oc3cc(O)c(Cl)cc23)cc1)c1ccccc1 (stereo not drawn) [CF-A3] | 520 | 559 | 0.40
CCCCCCCCCCCCCNC(=O)c1ccc(-c2c3cc(Cl)c(=O)cc-3oc3cc(O)c(Cl)cc23)cc1 [CF-A4] | 520 | 558 | 0.26
O=C(c1ccc(-c2c3cc(Cl)c(=O)cc-3oc3cc(O)c(Cl)cc23)cc1)N1CCc2ccccc2C1 [CF-A5] | 520 | 556 | 0.75
CC(Cc1ccccc1)NC(=O)c1ccc(-c2c3cc(Cl)c(=O)cc-3oc3cc(O)c(Cl)cc23)cc1 (stereo not drawn) [CF-A6] | 520 | 557 | 0.43
O=C(NCc1c(F)cccc1F)c1ccc(-c2c3cc(Cl)c(=O)cc-3oc3cc(O)c(Cl)cc23)cc1 [CF-A7] | 520 | 560 | 0.58
O=C(NCc1ccc(OC(F)(F)F)cc1)c1ccc(-c2c3cc(Cl)c(=O)cc-3oc3cc(O)c(Cl)cc23)cc1 [CF-A8] | 520 | 558 | 0.37
O=C(NC1CCCCC1)c1ccc(-c2c3cc(Cl)c(=O)cc-3oc3cc(O)c(Cl)cc23)cc1 [CF-A9] | 520 | 557 | 0.63
CN(C(=O)c1ccc(-c2c3cc(Cl)c(=O)cc-3oc3cc(O)c(Cl)cc23)cc1)C1CCCCC1 [CF-A10] | 520 | 558 | 0.63
CCCN(CCC)C(=O)c1ccc(-c2c3cc(Cl)c(=O)cc-3oc3cc(O)c(Cl)cc23)cc1 [CF-A11] | 520 | 558 | 0.36
O=C(NC1CC1)c1ccc(-c2c3cc(Cl)c(=O)cc-3oc3cc(O)c(Cl)cc23)cc1 [CF-B2] | 520 | 558 | 0.53
COCCNC(=O)c1ccc(-c2c3cc(Cl)c(=O)cc-3oc3cc(O)c(Cl)cc23)cc1 [CF-B3] | 520 | 557 | 0.32
CCCCN(CC)C(=O)c1ccc(-c2c3cc(Cl)c(=O)cc-3oc3cc(O)c(Cl)cc23)cc1 [CF-B4] | 520 | 556 | 0.90
CCCCC(CC)COCCCNC(=O)c1ccc(-c2c3cc(Cl)c(=O)cc-3oc3cc(O)c(Cl)cc23)cc1 (stereo not drawn) [CF-B5] | 520 | 559 | 0.54
CN(Cc1ccccc1)C(=O)c1ccc(-c2c3cc(Cl)c(=O)cc-3oc3cc(O)c(Cl)cc23)cc1 [CF-B6] | 520 | 558 | 0.77
O=C(c1ccc(-c2c3cc(Cl)c(=O)cc-3oc3cc(O)c(Cl)cc23)cc1)N1CCCC1 [CF-B7] | 520 | 556 | 0.70
CC(C)NC(=O)c1ccc(-c2c3cc(Cl)c(=O)cc-3oc3cc(O)c(Cl)cc23)cc1 [CF-B8] | 520 | 559 | 0.57
CCCCC(CC)CNC(=O)c1ccc(-c2c3cc(Cl)c(=O)cc-3oc3cc(O)c(Cl)cc23)cc1 (stereo not drawn) [CF-B9] | 520 | 558 | 0.60
COc1ccc(CCNC(=O)c2ccc(-c3c4cc(Cl)c(=O)cc-4oc4cc(O)c(Cl)cc34)cc2)cc1OC [CF-B10] | 520 | 559 | 0.56
CCCCCCCNC(=O)c1ccc(-c2c3cc(Cl)c(=O)cc-3oc3cc(O)c(Cl)cc23)cc1 [CF-B11] | 520 | 558 | 0.66
CC(C)N(Cc1ccccc1)C(=O)c1ccc(-c2c3cc(Cl)c(=O)cc-3oc3cc(O)c(Cl)cc23)cc1 [CF-C2] | 520 | 559 | 0.78
CCCCCCCCNC(=O)c1ccc(-c2c3cc(Cl)c(=O)cc-3oc3cc(O)c(Cl)cc23)cc1 [CF-C3] | 520 | 559 | 0.37
COc1cccc(CNC(=O)c2ccc(-c3c4cc(Cl)c(=O)cc-4oc4cc(O)c(Cl)cc34)cc2)c1 [CF-C4] | 520 | 559 | 0.55
COc1ccc(CCNC(=O)c2ccc(-c3c4cc(Cl)c(=O)cc-4oc4cc(O)c(Cl)cc34)cc2)cc1 [CF-C5] | 520 | 558 | 0.63

Compound | Abs (nm) | Em (nm) | QY (Φ)
CCCN(CC1CC1)C(=O)c1ccc(-c2c3cc(Cl)c(=O)cc-3oc3cc(O)c(Cl)cc23)cc1 [CF-C6] | 520 | 554 | 0.58
CC1CCCCC1NC(=O)c1ccc(-c2c3cc(Cl)c(=O)cc-3oc3cc(O)c(Cl)cc23)cc1 (stereo not drawn) [CF-C7] | 520 | 558 | 0.42
CC(C)CCNC(=O)c1ccc(-c2c3cc(Cl)c(=O)cc-3oc3cc(O)c(Cl)cc23)cc1 [CF-C8] | 520 | 558 | 0.68
O=C(NC1CCCCCC1)c1ccc(-c2c3cc(Cl)c(=O)cc-3oc3cc(O)c(Cl)cc23)cc1 [CF-C9] | 520 | 558 | 0.50
Cc1ccc(CCNC(=O)c2ccc(-c3c4cc(Cl)c(=O)cc-4oc4cc(O)c(Cl)cc34)cc2)cc1 [CF-C10] | 520 | 558 | 0.54
O=C(NCCCN1CCCC1=O)c1ccc(-c2c3cc(Cl)c(=O)cc-3oc3cc(O)c(Cl)cc23)cc1 [CF-D2] | 520 | 557 | 0.61
CC1CN(C(=O)c2ccc(-c3c4cc(Cl)c(=O)cc-4oc4cc(O)c(Cl)cc34)cc2)CC(C)O1 (stereo not drawn) [CF-D3] | 520 | 555 | 0.47
CN(CCc1ccccc1)C(=O)c1ccc(-c2c3cc(Cl)c(=O)cc-3oc3cc(O)c(Cl)cc23)cc1 [CF-D4] | 520 | 555 | 0.69
CCN(Cc1ccccc1)C(=O)c1ccc(-c2c3cc(Cl)c(=O)cc-3oc3cc(O)c(Cl)cc23)cc1 [CF-D5] | 520 | 555 | 0.66
CCCCCCCCCCCCCCCCCCNC(=O)c1ccc(-c2c3cc(Cl)c(=O)cc-3oc3cc(O)c(Cl)cc23)cc1 [CF-D6] | 520 | 555 | 0.32
Cc1cccc(CN(C)C(=O)c2ccc(-c3c4cc(Cl)c(=O)cc-4oc4cc(O)c(Cl)cc34)cc2)c1 [CF-D7] | 520 | 555 | 0.54
O=C(NC1Cc2ccccc2C1)c1ccc(-c2c3cc(Cl)c(=O)cc-3oc3cc(O)c(Cl)cc23)cc1 [CF-D8] | 520 | 558 | 0.47
CCCNC(=O)c1ccc(-c2c3cc(Cl)c(=O)cc-3oc3cc(O)c(Cl)cc23)cc1 [CF-D9] | 520 | 558 | 0.25
O=C(NCCC(c1ccccc1)c1ccccc1)c1ccc(-c2c3cc(Cl)c(=O)cc-3oc3cc(O)c(Cl)cc23)cc1 [CF-D10] | 520 | 558 | 0.59
O=C(NCCCCc1ccccc1)c1ccc(-c2c3cc(Cl)c(=O)cc-3oc3cc(O)c(Cl)cc23)cc1 [CF-D11] | 520 | 558 | 0.44
O=C(NCc1c(Cl)cccc1Cl)c1ccc(-c2c3cc(Cl)c(=O)cc-3oc3cc(O)c(Cl)cc23)cc1 [CF-E2] | 520 | 557 | 0.63
CCCCN(CCCC)C(=O)c1ccc(-c2c3cc(Cl)c(=O)cc-3oc3cc(O)c(Cl)cc23)cc1 [CF-E3] | 520 | 554 | 0.66
CCOCCCNC(=O)c1ccc(-c2c3cc(Cl)c(=O)cc-3oc3cc(O)c(Cl)cc23)cc1 [CF-E4] | 520 | 558 | 0.47
O=C(NC1CCCC1)c1ccc(-c2c3cc(Cl)c(=O)cc-3oc3cc(O)c(Cl)cc23)cc1 [CF-E5] | 520 | 556 | 0.58
CC(C)C(C)NC(=O)c1ccc(-c2c3cc(Cl)c(=O)cc-3oc3cc(O)c(Cl)cc23)cc1 (stereo not drawn) [CF-E6] | 520 | 557 | 0.29
COc1cccc(CCNC(=O)c2ccc(-c3c4cc(Cl)c(=O)cc-4oc4cc(O)c(Cl)cc34)cc2)c1OC [CF-E7] | 520 | 557 | 0.46
COc1ccccc1CCNC(=O)c1ccc(-c2c3cc(Cl)c(=O)cc-3oc3cc(O)c(Cl)cc23)cc1 [CF-F8] | 520 | 559 | 0.34
CC(C)OCCCNC(=O)c1ccc(-c2c3cc(Cl)c(=O)cc-3oc3cc(O)c(Cl)cc23)cc1 [CF-F9] | 520 | 557 | 0.34
CCCCCCN(C)C(=O)c1ccc(-c2c3cc(Cl)c(=O)cc-3oc3cc(O)c(Cl)cc23)cc1 [CF-F10] | 520 | 559 | 0.35
